Reference: the NIST ThermoML archive (doi:10.1016/j.jct.2009.06.001)

Key:
[1] = mn = molality of the nth substance listed, in mol/kg; details: 298.15 K, 101 kPa, Liquid; for speed of sound: Sing-around technique in a fixed-path interferometer; for mass density: Vibrating tube method
[2] = 298.15 K, 101.33 kPa, Liquid; for speed of sound: Sing-around technique in a fixed-path interferometer; for mass density: Vibrating tube method

c1ccccc1 [benzene] + CCCCCCC
[1]
Details	mass density [kg/m3]	speed of sound [m/s]
m1 = 0.1915	681.6	1132.3
m1 = 0.3783	683.56	1133.2
m1 = 0.5615	685.43	1133.9
m1 = 0.7515	687.34	1134.8
m1 = 0.943	689.24	1135.8

c1ccc(-c2ccccc2)cc1 [biphenyl] + C1CCCCC1
[1]
Details	mass density [kg/m3]	speed of sound [m/s]
m1 = 0.0342	774.82	1256
m1 = 0.0676	775.74	1256.7
m1 = 0.1061	776.79	1257.5
m1 = 0.1335	777.52	1258.1
m1 = 0.1732	778.61	1259

c1ccc(-c2ccccc2)cc1 [biphenyl] + CCCCCCC
[1]
Details	mass density [kg/m3]	speed of sound [m/s]
m1 = 0.0409	681.02	1133
m1 = 0.0772	682.37	1134.4
m1 = 0.113	683.67	1135.6
m1 = 0.1561	685.21	1137
m1 = 0.1949	686.6	1138.3

C1CCCCC1 [cyclohexane]
[2]
Details	mass density [kg/m3]	speed of sound [m/s]
–	773.87	1255.3

C1CCCCC1 [cyclohexane] + c1ccccc1
[1]
Details	mass density [kg/m3]	speed of sound [m/s]
m2 = 0.162	774.73	1254.7
m2 = 0.3316	775.59	1254.2
m2 = 0.5187	776.54	1253.5
m2 = 0.6616	777.26	1253.2
m2 = 0.8272	778.07	1252.7

CCCCCCC [heptane]
[2]
Details	mass density [kg/m3]	speed of sound [m/s]
–	679.55	1131.4

c1ccc(-c2cccc(-c3ccccc3)c2)cc1 [m-terphenyl] + C1CCCCC1
[1]
Details	mass density [kg/m3]	speed of sound [m/s]
m1 = 0.0253	775.15	1256.5
m1 = 0.0482	776.28	1257.4
m1 = 0.0693	777.33	1258.2
m1 = 0.0928	778.48	1259.2
m1 = 0.1161	779.62	1260.1

c1ccc(-c2cccc(-c3ccccc3)c2)cc1 [m-terphenyl] + CCCCCCC
[1]
Details	mass density [kg/m3]	speed of sound [m/s]
m1 = 0.0245	681.04	1133
m1 = 0.04	682	1133.8
m1 = 0.0536	682.83	1134.6
m1 = 0.0666	683.63	1135.3
m1 = 0.076	684.21	1135.9

c1ccc2ccccc2c1 [naphthalene] + C1CCCCC1
[1]
Details	mass density [kg/m3]	speed of sound [m/s]
m1 = 0.0805	775.71	1256.5
m1 = 0.1659	777.64	1257.8
m1 = 0.2522	779.56	1259.1
m1 = 0.3257	781.18	1260.2
m1 = 0.4055	782.91	1261.5

c1ccc2ccccc2c1 [naphthalene] + CCCCCCC
[1]
Details	mass density [kg/m3]	speed of sound [m/s]
m1 = 0.0934	682.41	1134.3
m1 = 0.1975	685.54	1137.2
m1 = 0.2708	687.7	1139.1
m1 = 0.3725	690.68	1141.8
m1 = 0.4561	693.03	1144

c1ccc(-c2ccccc2-c2ccccc2)cc1 [o-terphenyl] + C1CCCCC1
[1]
Details	mass density [kg/m3]	speed of sound [m/s]
m1 = 0.0245	775.07	1256.1
m1 = 0.0451	776.06	1256.8
m1 = 0.0688	777.19	1257.5
m1 = 0.093	778.35	1258.4
m1 = 0.1144	779.36	1259

c1ccc(-c2ccccc2-c2ccccc2)cc1 [o-terphenyl] + CCCCCCC
[1]
Details	mass density [kg/m3]	speed of sound [m/s]
m1 = 0.0267	681.11	1132.8
m1 = 0.0392	681.85	1133.5
m1 = 0.0544	682.75	1134.1
m1 = 0.0652	683.4	1134.6
m1 = 0.0763	684.05	1135.2

c1ccc2c(c1)ccc1ccccc12 [phenanthrene] + C1CCCCC1
[1]
Details	mass density [kg/m3]	speed of sound [m/s]
m1 = 0.0343	775.27	1256.4
m1 = 0.0591	776.28	1257.2
m1 = 0.0896	777.54	1258.2
m1 = 0.1162	778.63	1259
m1 = 0.1455	779.78	1259.8

c1ccc2c(c1)ccc1ccccc12 [phenanthrene] + CCCCCCC
[1]
Details	mass density [kg/m3]	speed of sound [m/s]
m1 = 0.0349	681.3	1133.2
m1 = 0.0513	682.12	1134
m1 = 0.0739	683.26	1135
m1 = 0.0812	683.59	1135.3
m1 = 0.1012	684.63	1136.2
